Reference: the NIST ThermoML archive (doi:10.1016/j.fluid.2012.08.002)
Numbers after ± are expanded uncertainties.

Experiment: xn = mol fraction of the nth substance listed
Details: 101 kPa, Liquid; for speed of sound: Sing-around technique in a fixed-path interferometer; for mass density: Vibrating tube method

CCCCCCn1cc[n+](C)c1.[Br-] [3-hexyl-1-methyl-1H-imidazolium bromide] + COCCO
Details | mass density [kg/m3] | speed of sound [m/s]
288.15 K, x1 = 0.0541 | 1003.16 ± 0.14 | 1406.2 ± 0.88
288.15 K, x1 = 0.1114 | 1033.95 ± 0.14 | 1427.1 ± 0.9
288.15 K, x1 = 0.2063 | 1075.85 ± 0.16 | 1455 ± 0.94
288.15 K, x1 = 0.3163 | 1113.65 ± 0.19 | 1481.2 ± 0.98
288.15 K, x1 = 0.399 | 1136.61 ± 0.21 | 1498.5 ± 1
288.15 K, x1 = 0.5066 | 1160.88 ± 0.25 | 1518.9 ± 1.1
288.15 K, x1 = 0.5919 | 1177.15 ± 0.28 | 1532.1 ± 1.1
288.15 K, x1 = 0.7003 | 1194.68 ± 0.31 | 1550.1 ± 1.1
288.15 K, x1 = 0.8193 | 1210.88 ± 0.35 | 1578.5 ± 1.2
288.15 K, x1 = 0.905 | 1221.01 ± 0.39 | 1610.1 ± 1.2
293.15 K, x1 = 0.0541 | 998.827 ± 0.14 | 1389.9 ± 0.88
293.15 K, x1 = 0.1114 | 1029.8 ± 0.14 | 1411.5 ± 0.9
293.15 K, x1 = 0.2063 | 1071.89 ± 0.16 | 1440.2 ± 0.94
293.15 K, x1 = 0.3163 | 1109.92 ± 0.19 | 1467.3 ± 0.98
293.15 K, x1 = 0.399 | 1132.93 ± 0.21 | 1485.4 ± 1
293.15 K, x1 = 0.5066 | 1157.28 ± 0.25 | 1506 ± 1.1
293.15 K, x1 = 0.5919 | 1173.58 ± 0.27 | 1519.1 ± 1.1
293.15 K, x1 = 0.7003 | 1191.1 ± 0.31 | 1535.7 ± 1.1
293.15 K, x1 = 0.8193 | 1207.23 ± 0.35 | 1560 ± 1.2
293.15 K, x1 = 0.905 | 1217.37 ± 0.38 | 1584.7 ± 1.2
298.15 K, x1 = 0.0541 | 994.442 ± 0.14 | 1373.6 ± 0.87
298.15 K, x1 = 0.1114 | 1025.66 ± 0.14 | 1395.9 ± 0.89
298.15 K, x1 = 0.2063 | 1067.99 ± 0.16 | 1425.3 ± 0.93
298.15 K, x1 = 0.3163 | 1106.17 ± 0.19 | 1454 ± 0.98
298.15 K, x1 = 0.399 | 1129.03 ± 0.21 | 1472.5 ± 1
298.15 K, x1 = 0.5066 | 1153.7 ± 0.24 | 1493.4 ± 1.1
298.15 K, x1 = 0.5919 | 1169.99 ± 0.27 | 1506.4 ± 1.1
298.15 K, x1 = 0.7003 | 1187.69 ± 0.31 | 1521.9 ± 1.1
298.15 K, x1 = 0.8193 | 1203.66 ± 0.35 | 1543.4 ± 1.2
298.15 K, x1 = 0.905 | 1213.6 ± 0.38 | 1563.8 ± 1.2
303.15 K, x1 = 0.0541 | 990.104 ± 0.14 | 1357.4 ± 0.87
303.15 K, x1 = 0.1114 | 1021.6 ± 0.14 | 1380.5 ± 0.89
303.15 K, x1 = 0.2063 | 1064.1 ± 0.16 | 1410.7 ± 0.93
303.15 K, x1 = 0.3163 | 1102.4 ± 0.19 | 1440.7 ± 0.97
303.15 K, x1 = 0.399 | 1125.44 ± 0.21 | 1459.6 ± 1
303.15 K, x1 = 0.5066 | 1150.12 ± 0.24 | 1481 ± 1.1
303.15 K, x1 = 0.5919 | 1166.5 ± 0.27 | 1494.1 ± 1.1
303.15 K, x1 = 0.7003 | 1184.24 ± 0.3 | 1509.1 ± 1.1
303.15 K, x1 = 0.8193 | 1200.22 ± 0.35 | 1528.5 ± 1.2
303.15 K, x1 = 0.905 | 1210.1 ± 0.38 | 1545.7 ± 1.2
308.15 K, x1 = 0.0541 | 985.747 ± 0.14 | 1341.1 ± 0.86
308.15 K, x1 = 0.1114 | 1017.43 ± 0.14 | 1365.1 ± 0.89
308.15 K, x1 = 0.2063 | 1060.19 ± 0.16 | 1396.3 ± 0.92
308.15 K, x1 = 0.3163 | 1098.64 ± 0.18 | 1427.5 ± 0.97
308.15 K, x1 = 0.399 | 1121.85 ± 0.21 | 1446.7 ± 1
308.15 K, x1 = 0.5066 | 1146.54 ± 0.24 | 1468.7 ± 1.1
308.15 K, x1 = 0.5919 | 1162.92 ± 0.27 | 1482 ± 1.1
308.15 K, x1 = 0.7003 | 1180.7 ± 0.3 | 1496.7 ± 1.1
308.15 K, x1 = 0.8193 | 1196.79 ± 0.34 | 1514.7 ± 1.2
308.15 K, x1 = 0.905 | 1206.71 ± 0.37 | 1529.7 ± 1.2
313.15 K, x1 = 0.0541 | 981.397 ± 0.14 | 1324.9 ± 0.86
313.15 K, x1 = 0.1114 | 1013.1 ± 0.14 | 1349.9 ± 0.88
313.15 K, x1 = 0.2063 | 1056.1 ± 0.15 | 1382.4 ± 0.92
313.15 K, x1 = 0.3163 | 1094.88 ± 0.18 | 1414.3 ± 0.97
313.15 K, x1 = 0.399 | 1118.18 ± 0.2 | 1433.9 ± 1
313.15 K, x1 = 0.5066 | 1142.96 ± 0.24 | 1456.5 ± 1
313.15 K, x1 = 0.5919 | 1159.44 ± 0.26 | 1470.3 ± 1.1
313.15 K, x1 = 0.7003 | 1177.16 ± 0.3 | 1484.8 ± 1.1
313.15 K, x1 = 0.8193 | 1193.35 ± 0.34 | 1501.8 ± 1.2
313.15 K, x1 = 0.905 | 1203.34 ± 0.37 | 1515.2 ± 1.2
318.15 K, x1 = 0.0541 | 976.988 ± 0.15 | 1308.7 ± 0.85
318.15 K, x1 = 0.1114 | 1009.12 ± 0.14 | 1335.8 ± 0.88
318.15 K, x1 = 0.2063 | 1052.25 ± 0.16 | 1369.4 ± 0.92
318.15 K, x1 = 0.3163 | 1091.12 ± 0.18 | 1401.5 ± 0.96
318.15 K, x1 = 0.399 | 1114.51 ± 0.2 | 1421.1 ± 1
318.15 K, x1 = 0.5066 | 1139.37 ± 0.23 | 1444.5 ± 1
318.15 K, x1 = 0.5919 | 1155.95 ± 0.26 | 1458.7 ± 1.1
318.15 K, x1 = 0.7003 | 1173.69 ± 0.3 | 1473.2 ± 1.1
318.15 K, x1 = 0.8193 | 1189.89 ± 0.34 | 1489.7 ± 1.2
318.15 K, x1 = 0.905 | 1199.95 ± 0.37 | 1501.9 ± 1.2
